Assay results reported in patent publication US11066414B2, “Cot modulators and methods of use thereof” (Gilead Sciences, Inc., priority 2015, dated 2021).
Where two headings read alike, the source gives them in different places.

Columns and labels:
[1] = test system: TNFα; assay: Cot Monocyte TNFα Cell Based Assay
[2] = biological target: Human Cot (Homo sapiens (Human), UniProt P41279); assay: High Throughput Cot Biochemical Assay; conditions: Cot HTRF (TR-FRET) biochemical assay
[3] = read-out: EC50 TNF, LPS-stimulated human monocytes, TNFα
[4] = Homo sapiens, Monocyte, read-out: EC50 TNF, LPS-stimulated human monocytes, TNFα

Human Cot, sequence (P41279 30-397): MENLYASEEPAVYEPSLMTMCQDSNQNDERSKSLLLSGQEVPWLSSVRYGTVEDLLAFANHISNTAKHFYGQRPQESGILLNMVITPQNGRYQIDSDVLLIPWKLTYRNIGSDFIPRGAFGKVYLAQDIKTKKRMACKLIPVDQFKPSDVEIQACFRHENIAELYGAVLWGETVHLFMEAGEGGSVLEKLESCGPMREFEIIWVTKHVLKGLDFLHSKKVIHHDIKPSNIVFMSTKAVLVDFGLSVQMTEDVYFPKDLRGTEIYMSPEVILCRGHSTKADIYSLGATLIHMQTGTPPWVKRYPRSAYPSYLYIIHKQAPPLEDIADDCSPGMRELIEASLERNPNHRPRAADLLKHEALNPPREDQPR

| SMILES | EC50 [1, 3] [nM] | IC50 ([2]; read-out: IC50 HTRF) [nM] | EC50 [1, 4] [nM] | IC50 ([2]; IC50 HTRF) [nM] |
| --- | --- | --- | --- | --- |
| N#Cc1cnc2c(Cl)cc(N[C@@H](c3cccnc3)c3cn(C4COC4)nn3)cc2c1N[C@H](CCO)c1ccccc1 [Example 183, 8-chloro-4-(((R)-3-hydroxy-1-phenylpropyl)amino)-6-(((S)-(1-(oxetan-3-yl)-1H-1,2,3-triazol-4-yl)(pyridin-3-l)methyl)amino)-quinoline-3-carbonitrile] | > 10000 | 357 |  |  |
| CC(C)n1cc([C@@H](Nc2cc(Cl)c3ncc(C#N)c(N[C@@H](CCO)c4ccccc4)c3c2)c2cccnc2)nn1 [Example 184, 8-chloro-4-(((S)-3-hydroxy-1-phenylpropyl)amino)-6-(((S)-(1-isopropyl-1H-1,2,3-triazol-4-yl)(pyridin-3-l)methyl)amino)-quinoline-3-carbonitrile] | 387 | 8 |  |  |
| CC(C)n1cc([C@@H](Nc2cc(Cl)c3ncc(C#N)c(N[C@H](CCO)c4ccccc4)c3c2)c2cccnc2)nn1 [Example 185, 8-chloro-4-(((R)-3-hydroxy-1-phenylpropyl)amino)-6-(((S)-(1-isopropyl-1H-1,2,3-triazol-4-yl)(pyridin-3-yl)methyl)amino)quinoline-3-carbonitrile] |  |  | 9740 | 305 |
| CC(C)(O)[C@@H](Nc1c(C#N)cnc2c(Cl)cc(N[C@@H](c3cccnc3)c3c[nH]nn3)cc12)c1ccccc1 [Example 186, 8-chloro-4-(((S)-2-hydroxy-2-methyl-1-phenylpropyl)amino)-6-(((S)-pyridin-3-yl(1H-1,2,3-triazol-4-yl)methyl)amino)quinoline-3-carbonitrile] |  |  | 6620 | 118 |
| CC(C)n1cc([C@@H](Nc2cc(Cl)c3ncc(C#N)c(N[C@@H](c4ccccc4)C(C)(C)O)c3c2)c2cccnc2)nn1 [Example 187, 8-chloro-4-(((S)-2-hydroxy-2-methyl-1-phenylpropyl)amino)-6-(((S)-(1-isopropyl-1H-1,2,3-triazol-4-yl)(pyridin-3-yl)methyl)amino)-quinoline-3-carbonitrile] |  |  | 2110 | 67 |
| CC(C)(O)[C@H](Nc1c(C#N)cnc2c(Cl)cc(N[C@@H](c3cccnc3)c3c[nH]nn3)cc12)c1ccccc1 [Example 188, 8-chloro-4-(((R)-2-hydroxy-2-methyl-1-phenylpropyl)amino)-6-(((S)-pyridin-3-yl(1H-1,2,3-triazol-4-yl)methyl)amino)quinoline-3-carbonitrile] |  |  | > 10000 | > 10000 |
| N#Cc1cnc2c(Cl)cc(N[C@@H](c3cccnc3)c3cn(CCF)nn3)cc2c1Nc1cnc(F)c(F)c1 [Example 189, (S)-8-chloro-4-((5,6-difluoropyridin-3-yl)amino)-6-(((1-(2-fluoroethyl)-1H-1,2,3-triazol-4-yl)(pyridin-3-yl)methyl)amino)quinoline-3-carbonitrile] |  |  | 1060 | 8 |
| CC[C@@H](Nc1c(C#N)cnc2c(Cl)cc(N[C@@H](c3cccnc3)c3cn(C4CC4)nn3)cc12)c1ccccc1 [Example 191, 8-chloro-6-(((S)-(1-cyclopropyl-1H-1,2,3-triazol-4-yl)(pyridin-3-yl)methyl)amino)-4-(((R)-1-phenylpropyl)amino)quinoline-3-carbonitrile] |  |  | 104 | 2 |
| CC[C@@H](Nc1c(C#N)cnc2c(Cl)cc(N[C@@H](c3cccnc3)c3cn(C(C)(C)C)nn3)cc12)c1ccccc1 [Example 192, 6-(((S)-(1-(tert-butyl)-1H-1,2,3-triazol-4-yl)(pyridin-3-yl)methyl)amino)-8-chloro-4-(((R)-1-phenylpropyl)arnino)quinoline-3-carbonitrile] | 186 | 3 |  |  |
| CC[C@@H](Nc1c(C#N)cnc2c(Cl)cc(N[C@@H](c3cccnc3)c3cn(C(C)C)nn3)cc12)c1ccccc1 [Example 193, 8-chloro-6-(((S)-(1-isopropyl-1H-1,2,3-triazol-4-yl)(pyridin-3-yl)methyl)amino)-4-(((R)-1-phenylpropyl)amino)quinoline-3-carbonitrile] |  |  | 107 | 2 |
| CC[C@@H](Nc1c(C#N)cnc2c(Cl)cc(N[C@@H](c3cccnc3)c3cn(CC(F)(F)F)nn3)cc12)c1ccccc1 [Example 195, 8-chloro-4-(((R)-1-phenylpropyl)amino)-6-(((S)-pyridin-3-yl(1-(2,2,2-trifluoroethyl)-1H-1,2,3-triazol-4-yl)methyl)amino)quinoline-3-carbonitrile] |  |  | 132 | 4 |

Next, values leading:

| EC50 [1, 3] [nM] | IC50 ([2]; read-out: IC50 HTRF) [nM] | EC50 [1, 4] [nM] | IC50 ([2]; IC50 HTRF) [nM] | SMILES |
| --- | --- | --- | --- | --- |
|  |  | 668 | 6 | N#Cc1cnc2c(Cl)cc(N[C@@H](c3cccnc3)c3cn(C4COC4)nn3)cc2c1Nc1cccc(Cl)c1 [Example 196, (S)-8-chloro-4-((3-chlorophenyl)amino)-6-(((1-(oxetan-3-yl)-1H-1,2,3-triazol-4-yl)(pyridin-3-yl)methyl)amino)quinoline-3-carbonitrile] |
|  |  | 599 | 9 | C[C@@H](CF)n1cc([C@@H](Nc2cc(Cl)c3ncc(C#N)c(Nc4cnc(F)c(F)c4)c3c2)c2cccnc2)nn1 [Example 197, 8-chloro-4-((5,6-difluoropyridin-3-yl)amino)-6-(((S)-(1-((S)-1-fluoropropan-2-yl)-1H-1,2,3-triazol-4-yl)(pyridin-3-yl)methyl)amino)quinoline-3-carbonitrile] |
|  |  | 982 | 17 | CC(C)(C)n1cc([C@@H](Nc2cc(Cl)c3ncc(C#N)c(Nc4cnc(F)c(F)c4)c3c2)c2cccnc2)nn1 [Example 198, (S)-6-(((1-(tert-butyl)-1H-1,2,3-triazol-4-yl)(pyridin-3-yl)methyl)amino)-8-chloro-4-((5,6-difluoropyridin-3-yl)amino)quinoline-3-carbonitrile] |
|  |  | 2520 | 9 | N#Cc1cnc2c(Cl)cc(N[C@@H](c3cccnc3)c3cn(C4COC4)nn3)cc2c1Nc1cnc(F)c(F)c1 [Example 199, (S)-8-chloro-4-((5,6-difluoropyridin-3-yl)amino)-6-(((1-(oxetan-3-yl)-1H-1,2,3-triazol-4-yl)(pyridin-3-yl)methyl)amino)quinoline-3-carbonitrile] |
|  |  | 558 | 7 | N#Cc1cnc2c(Cl)cc(N[C@@H](c3cccnc3)c3cn(CCCN4CCCC4)nn3)cc2c1Nc1cnc(F)c(F)c1 [Example 200, (S)-8-chloro-4-((5,6-difluoropyridin-3-yl)amino)-6-((pyridin-3-yl(1-(3-(pyrrolidin-1-yl)propyl)-1H-1,2,3-triazol-4-yl)methyl)amino)quinoline-3-carbonitrile] |
|  |  | 5600 | 56 | N#Cc1cnc2c(Cl)cc(N[C@@H](c3cccnc3)c3cn(C4COC4)nn3)cc2c1NC1CCOCC1 [Example 201, (S)-8-chloro-6-(((1-(oxetan-3-yl)-1H-1,2,3-triazol-4-yl)(pyridin-3-yl)methyl)amino)-4-((tetrahydro-2H-pyran-4-yl)amino)quinoline-3-carbonitrile] |
|  |  | > 10000 | > 10000 | CC(C)n1cc([C@@H](Nc2cc(Cl)c3ncc(C#N)c(N[C@H](c4ccccc4)C(C)(C)O)c3c2)c2cccnc2)nn1 [Example 202, 8-chloro-4-(((R)-2-hydroxy-2-methyl-1-phenylpropyl)amino)-6-(((S)-(1-isopropyl-1H-1,2,3-triazol-4-yl)(pyridin-3-yl)methyl)amino)quinoline-3-carbonitrile] |
|  |  | 9090 | 6920 | COC[C@H](Nc1c(C#N)cnc2c(Cl)cc(N[C@@H](c3cccnc3)c3c[nH]nn3)cc12)c1ccccc1 [Example 203, 8-chloro-4-(((R)-2-methoxy-1-phenylethyl)amino)-6-(((S)-pyridin-3-yl(1H-1,2,3-triazol-4-yl)methyl)amino)quinoline-3-carbonitrile] |
|  |  | > 10000 | 8510 | COC[C@H](Nc1c(C#N)cnc2c(Cl)cc(N[C@@H](c3cccnc3)c3cn(C(C)C)nn3)cc12)c1ccccc1 [Example 204, 8-chloro-6-(((S)-(1-isopropyl-1H-1,2,3-triazol-4-yl)(pyridin-3-yl)methyl)amino)-4-(((R)-2-methoxy-1-phenylethyl)amino)quinoline-3-carbonitrile] |
|  |  | 2050 | 72 | C[C@@H](n1cc([C@@H](Nc2cc(Cl)c3ncc(C#N)c(Nc4cnc(F)c(F)c4)c3c2)c2cccnc2)nn1)C(F)(F)F [Example 205, 8-chloro-4-((5,6-difluoropyridin-3-yl)amino)-6-(((S)-pyridin-3-yl(1-((R)-1,1,1-trifluoropropan-2-yl)-1H-1,2,3-triazol-4-yl)methyl)amino)quinoline-3-carbonitrile] |
|  |  | 931 | 5 | N#Cc1cnc2c(Cl)cc(N[C@@H](c3cccnc3)c3c[nH]nn3)cc2c1Nc1cnc(F)c(F)c1 [Example 207, (S)-8-chloro-4-((5,6-difluoropyridin-3-yl)amino)-6-((pyridin-3-yl(1H-1,2,3-triazol-4-yl)methyl)amino)quinoline-3-carbonitrile] |
|  |  | 424 | 10 | N#Cc1cnc2c(Cl)cc(N[C@@H](C3=CCOCC3)c3cn(C4COC4)nn3)cc2c1Nc1ccc(Cl)c(Cl)c1F [Example 210, (S)-8-chloro-4-((3,4-dichloro-2-fluorophenyl)amino)-6-(((3,6-dihydro-2H-pyran-4-yl)(1-(oxetan-3-yl)-1H-1,2,3-triazol-4-yl)methyl)amino)quinoline-3-carbonitrile] |
|  |  | 544 | 16 | N#Cc1cnc2c(Cl)cc(N[C@@H](C3=CCOCC3)c3c[nH]nn3)cc2c1Nc1ccc(Cl)c(Cl)c1F [Example 211, (S)-8-chloro-4-((3,4-dichloro-2-fluorophenyl)amino)-6-(((3,6-dihydro-2H-pyran-4-yl)(1H-1,2,3-triazol-4-yl)methyl)amino)quinoline-3-carbonitrile] |
